Measured values reported in patent US4477465A, “Substituted 4,10-dihydro-10-oxothieno benzoxepins” (Hoechst-Roussel Pharmaceuticals Inc., priority 1983, dated 1984).
Read-outs that look alike come from different tables or passages of the source.

Experiments:
[1] = test system: carrageenin induced rat paw edema; assay: carrageenin induced rat paw edema antiinflammatory assay; format: in vivo; settings: for Carrageenin Paw Edema %: dose 20 mg/kg (p.o.), rat
Source text: The compounds of the present invention are useful as antiinflammatory agents due to their ability to suppress inflammation in mammals. […] Exptl. Biol. Med., III 544 (1962), J. Pharmacol. Exp., 141 (1963)].

[2] = test system: 2-phenyl-1,4-benzoquinone-induced writhing; assay: 2-phenyl-1,4-benzoquinone-induced writhing test in mice (analgesia); format: in vivo; settings: Mus musculus, po
[3] = mice, read-out: Phenylquinone Writhing ED50 Orally (p.o.)

Structure (SMILES)	inhibition of edema ([1]; dose 50 mg/kg (p.o.), in a similar test) [%]	Carrageenin Paw Edema % [1] [%]	ED50 [2, 3] [mg/kg]	ED50 ([2]; read-out: analgesic activity ED50) [mg/kg]
CCCCC1C(=O)N(c2ccccc2)N(c2ccccc2)C1=O [phenylbutazone, reference compound]	50	–	–	–
CC1(C)COC(Cc2ccc3c(c2)C(=O)c2sccc2CO3)=N1 [2-(4,10-Dihydro-10-oxothieno[3,2-c][1]benzoxepin-8-yl)methyl-4,4-dimethyl-oxazoline]	–	49	7.22	–
COc1ccc2c(c1)c(CC(=O)O)c(C)n2C(=O)c1ccc(Cl)cc1 [indomethacin, reference compound]	–	–	–	0.7
COC(=O)COC(=O)Cc1ccc2c(c1)C(=O)c1sccc1CO2 [Methyl (4,10-dihydro-10-oxothieno[3,2-c][1]benzoxepin-8-yl) acetoxyacetate]	–	43	1.53	–
